{"source": "patent US5225436A", "about": "“Aryl substituted naphthalene derivatives” (Schering Corporation, priority 1991, dated 1993)", "key": {"5-lipoxygenase": {"molecular_target": "T1, 5-lipoxygenase (Mus musculus, UniProt P48999)", "T1 construct": "The IL-3-dependent murine mast cell clone, MC-9, was used to test the effects; endogenous in cells; host or cells: MC-9 (IL-3-dependent murine mast cell clone)", "T1 sequence (P48999 1-674)": "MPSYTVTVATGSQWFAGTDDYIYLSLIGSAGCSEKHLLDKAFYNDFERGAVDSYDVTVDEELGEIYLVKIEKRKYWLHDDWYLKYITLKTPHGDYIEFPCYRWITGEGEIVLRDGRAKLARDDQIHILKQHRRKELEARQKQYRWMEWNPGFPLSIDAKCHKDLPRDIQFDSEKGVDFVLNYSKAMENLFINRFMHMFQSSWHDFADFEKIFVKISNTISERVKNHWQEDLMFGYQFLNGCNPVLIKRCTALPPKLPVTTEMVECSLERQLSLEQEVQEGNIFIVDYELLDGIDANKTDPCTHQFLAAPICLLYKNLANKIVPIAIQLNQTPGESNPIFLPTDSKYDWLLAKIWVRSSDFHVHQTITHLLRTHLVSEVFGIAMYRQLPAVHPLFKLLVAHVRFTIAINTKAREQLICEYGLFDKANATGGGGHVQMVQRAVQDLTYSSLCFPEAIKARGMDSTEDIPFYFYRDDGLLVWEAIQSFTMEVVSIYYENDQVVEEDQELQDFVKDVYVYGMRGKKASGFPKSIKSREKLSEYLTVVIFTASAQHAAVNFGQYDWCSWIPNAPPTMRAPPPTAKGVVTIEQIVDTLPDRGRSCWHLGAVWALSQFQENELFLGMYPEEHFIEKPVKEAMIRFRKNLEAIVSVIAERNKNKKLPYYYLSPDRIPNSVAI", "experiment": "5-Lipoxygenase assay (murine mast cell clone MC-9)", "format": "cell-based", "conditions": "MC9, 5 min, MC-9 cell", "description": "The IL-3-dependent murine mast cell clone, MC-9, was used to test the effects of representative compounds of the invention on lipoxygenase activity. The MC-9 cell line was grown in suspension culture (0.4 to 1.2×10^6 cells/ml) in RPMI 1640 medium (Gibco) with 10% fetal bovine serum (Hyclone) and 2-5% conconavalin-A conditioned supernatant (Musch et. al., (1985) Prostagandins 29, 405-4307. Cells were harvested, washed twice by centrifugation, and resuspended in a Ca^++ -free HEPES buffer (25 mM HEPES, 125 mM NaCl, 2.5 mM KCl 0.7 mM MgCl2, 0.5 mM EGTA and 10 mM glucose at pH 7.4).\nMC-9 cells (0.39 ml at 7.5×10^6 cells/ml) were preincubated with dimethylsulfoxide (DMSO) vehicle with or without test compound (1 ul) for 4 minutes then incubated for 5 minutes with [^14 C] arachidonic acid (Amersham, 59 Ci/mole) at a 9 uM final concentration, and A23187 (Calbiochem) at a 1 uM final concentration was added in 10 ul of water:ethanol (9:1). The reaction was stopped by addition of methanol (0.4 ml), and cellular debris was removed by centrifugation. Aliquots (250 ul) of the incubations were run on a Waters two pump HPLC system fitted with a Waters C18, 10 u 8×100 mm u-Bondapak radial compression column and C18 \"Guard Pak\". The column was initially eluted at 3 ml/min with water:methanol:acetic acid (67:33:0.08) containing 1 mM EDTA adjusted to pH 6.0 with ammonium hydroxide (Pump A). At 4 minutes, a linear gradient to reach 100% methanol (Pump B) at 9 minutes was established. Between 13 and 14 minutes, methanol was exchanged for the initial eluting solvent and by 19 minutes the column had been reequilibrated for the next sample. The effluent was analyzed by a continuous flow radioactivity monitor (model ROMONA-D) interfaced with a Hewlett Packard Lab Automation System for quantitation of radioactive products. These were predominantly leukotriene C4 (LTC4) which eluted at 6 minutes, and 5-hydroxyeicosatetraenoic acid (5-HETE) which eluted at 11 minutes (Musch et. al., supra)."}, "[1]": {"system": "SRS-A / leukotriene release from antigen-challenged, sensitized guinea pig lung", "experiment": "Inhibition of SRS-A (leukotriene) release from antigen-challenged, sensitized guinea pig lung", "format": "cell-based", "conditions": "Cavia porcellus", "method_in_brief": "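Chopped sensitized guinea pig lung fragments (~400 mg) preincubated with or without compound 12 min at 37° C in Tyrode's with 10 mM cysteine, then challenged with 20 μg/ml ovalbumin (final) for 15 min. Ethanol-extracted supernatant leukotrienes measured by [3H]LTC4 RIA (55% LTD4 cross-reactivity); % inhibition versus the same lung without compound.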"}, "[2]": {"system": "anaphylactic bronchospasm (antigen-induced SRS-A mediated bronchoconstriction)", "experiment": "Inhibition of anaphylactic bronchospasm in sensitized guinea pigs", "format": "in vivo, guinea pig", "conditions": "Cavia porcellus, iv, 0.25 h, Dose 10 mpk, read-out: % Inhibition of anaphylactic bronchospasm", "description": "The anti-allergy method of this invention is identified by tests which measure a compound's inhibition of anaphylactic bronchospams-in sensitized guinea pigs having antigen-induced SRS-A mediated bronchoconstriction. Allergic bronchospams was measured in actively sensitized guinea pigs by a modification of the procedure of Konzett and Rossler, Arch. Exptl. Pathol. Pharmakol., 194, pp. 71-74 (1940). Male Hartley guinea pigs were sensitized with 5 mg ovalbumin injected ip and 5 mg injected sc in 1 ml saline on day 1 and 5 mg ovalbumin injected ip on day 4. The sensitized animals were used 3-4 weeks later. To measure anaphylactic bronchospasm, sensitized guinea pigs were fasted overnight and the following morning were anesthetized with 0.9 ml/kp ip dialurethane. The trachea and jugular vein were cannulated and the animals were ventilated by a Harvard rodent respirator. A side arm to the tracheal cannula was connected to a Harvard pressure transducer to obtain a continuous measure of intratracheal pressure. An increase in intratracheal pressure was taken as a measure of bronchoconstriction. Each guinea pig was injected iv with 1 mg/kg propranolol, 5 mg/kg indomethacin and 2 mg/kg mepyramine given together in a volume of […]. Fifteen minutes later, the animals were challenged with antigen (0.5 percent ovalbumin) delivered as an aerosol generated from a DeVilbiss Model 65 ultrasonic nebulizer and delivered through the tracheal cannula for 30 seconds. Bronchoconstriction was measured as the peak increase in intratracheal pressure occurring within 15 minutes after antigen challenge."}, "[3]": {"system": "arachidonic acid induced mouse ear inflammation", "experiment": "Arachidonic acid mouse ear test", "format": "in vivo, mouse (Charles River, female, CD, (SD) BR)", "conditions": "1 mg/ear, topical, 30 minutes prior to AA challenge", "description": "Charles River, female, CD, (SD) BR mice, 6 weeks old, are caged 8/group and allowed to acclimate 1-3 weeks prior to use.\nArachidonic acid (AA) is dissolved in reagent grade acetone (2 mg/.01 ml) and stored at -20° C. for a maximum of 1 week prior to use. Inflammatory reactions are induced by applying […] of AA to both surfaces of one ear ([…] total).\nTest drugs are dissolved in either reagent grade acetone or aqueous ethanol (only if insoluble in acetone) at the same doses selected by Opas et al., Fed. Proc. 43, Abstract 2983, p. 1927 (1984) and Young et al., J. Invest. Dermatol. 82, pp. 367-371 (1984). These doses are employed to ensure maximum responses and to overcome any difference in topical absorption which could occur with any drug applied in an aqueous ethanol vehicle. The test drug is applied 30 minutes prior to challenge with AA.\nThe severity of the inflammation is measured as a function of increased ear weight. A 6 mm punch biopsy is removed 1 hour after AA challenge and weighed to the nearest 0.1 mg. Mean ± standard error and all possible comparisons are made via Duncan's Multiple Range Statistic."}}, "note": "Counter-ions that a name gives are not always drawn. Like-named read-outs stand apart in the source and are kept apart here."}
{"smiles": "COc1cc(OC)c2c(c1)C(C)(C)C(c1ccc(OC)c(OC)c1)=CC2=O", "values": [{"measurement": "inhibition at 5 µM", "setting": "5-lipoxygenase; read-out: % Inhibition 5-HETE", "result": 9, "unit": "%"}, {"measurement": "inhibition at 5 µM", "setting": "5-lipoxygenase; read-out: % Inhibition LTC4", "result": 17, "unit": "%"}, {"measurement": "inhibition at 50 µM", "setting": "5-lipoxygenase; read-out: % Inhibition 5-HETE", "result": 95, "unit": "%"}, {"measurement": "inhibition at 50 µM", "setting": "5-lipoxygenase; read-out: % Inhibition LTC4", "result": 100, "unit": "%"}, {"measurement": "inhibition at 50 µM", "setting": "[1]", "result": 55, "unit": "%"}, {"measurement": "inhibition in vivo at 10 mg/kg", "setting": "[2]", "result": 36, "unit": "%"}]}
{"smiles": "COc1cc(OC)c2c(c1)C(C)(C)C(c1ccc(OC)c(OC)c1)CC2=NO", "note": "(centres unmarked)", "values": [{"measurement": "inhibition at 1 µM", "setting": "5-lipoxygenase; read-out: % Inhibition 5-HETE", "result": 28, "unit": "%"}, {"measurement": "inhibition at 1 µM", "setting": "5-lipoxygenase; read-out: % Inhibition LTC4", "result": 26, "unit": "%"}, {"measurement": "inhibition at 5 µM", "setting": "5-lipoxygenase; read-out: % Inhibition 5-HETE", "result": 100, "unit": "%"}, {"measurement": "inhibition at 5 µM", "setting": "5-lipoxygenase; read-out: % Inhibition LTC4", "result": 65, "unit": "%"}, {"measurement": "inhibition at 10 µM", "setting": "[1]; Dose 10 μm", "result": 35, "unit": "%"}, {"measurement": "inhibition at 50 µM", "setting": "[1]", "result": 75, "unit": "%"}, {"measurement": "inhibition in vivo at 10 mg/kg", "setting": "[2]", "result": 50, "unit": "%"}]}
{"smiles": "CC(=O)Oc1cc(OC(C)=O)c2c(c1)C(C)(C)C(c1ccc(OC(C)=O)c(OC(C)=O)c1)=CC2=O", "note": "[3-(3,4-diacetyloxyphenyl)-6,8-diacetyloxy-4,4-dimethyl-1(4H)-naphthalenone]", "values": [{"measurement": "inhibition at 5 µM", "setting": "5-lipoxygenase; read-out: % Inhibition 5-HETE", "result": 53, "unit": "%"}, {"measurement": "inhibition at 5 µM", "setting": "5-lipoxygenase; read-out: % Inhibition LTC4", "result": 43, "unit": "%"}, {"measurement": "inhibition at 50 µM", "setting": "[1]", "result": 48, "unit": "%"}, {"measurement": "inhibition in vivo at 10 mg/kg", "setting": "[2]", "result": 7, "unit": "%"}]}
{"smiles": "CC1(C)C(c2ccc(O)c(O)c2)=C(O)C(=O)c2c(O)cc(O)cc21", "note": "[3-(3,4-dihydroxyphenyl)-2,6,8-trihydroxy-4,4-dimethyl-1(4H)-naphthalenone]", "values": [{"measurement": "inhibition (increased ear weight)", "setting": "[3]", "result": 68, "unit": "%"}, {"measurement": "inhibition at 5 µM", "setting": "5-lipoxygenase; read-out: % Inhibition 5-HETE", "result": 43, "unit": "%"}, {"measurement": "inhibition at 50 µM", "setting": "5-lipoxygenase; read-out: % Inhibition 5-HETE", "result": 95, "unit": "%"}, {"measurement": "inhibition at 50 µM", "setting": "[1]", "result": 81, "unit": "%"}]}
{"smiles": "CC1(C)C(c2ccc(O)c(O)c2)=CC(=O)c2c(O)cc(O)cc21", "note": "[3-(3,4-dihydroxyphenyl)-6,8-dihydroxy-4,4-dimethyl-1(4H)-naphthalenone]", "values": [{"measurement": "inhibition (increased ear weight)", "setting": "[3]; listed as 3-(3,4-dihydroxyphenyl)-6,8-dihydroxy-4,4-dimethyl-1(4H)-naphthalenone", "result": 60, "unit": "%"}, {"measurement": "inhibition at 2 µM", "setting": "5-lipoxygenase; read-out: % Inhibition 5-HETE", "result": 52, "unit": "%"}, {"measurement": "inhibition at 2 µM", "setting": "5-lipoxygenase; read-out: % Inhibition LTC4", "result": 33, "unit": "%"}, {"measurement": "inhibition at 5 µM", "setting": "5-lipoxygenase; read-out: % Inhibition 5-HETE", "result": 76, "unit": "%"}, {"measurement": "inhibition at 50 µM", "setting": "[1]", "result": 77, "unit": "%"}, {"measurement": "inhibition in vivo at 10 mg/kg", "setting": "[2]", "result": 17, "unit": "%"}]}
{"smiles": "COc1cc(O)c2c(c1)C(C)(C)C(c1ccc(O)c(O)c1)=CC2=O", "note": "[3-(3,4-dihydroxyphenyl)-8-hydroxy-6-methoxy-4,4-dimethyl-1(4H)-naphthalenone]", "values": [{"measurement": "inhibition (increased ear weight)", "setting": "[3]", "result": 65, "unit": "%"}, {"measurement": "inhibition at 5 µM", "setting": "5-lipoxygenase; read-out: % Inhibition 5-HETE", "result": 60, "unit": "%"}, {"measurement": "inhibition at 50 µM", "setting": "[1]", "result": 43, "unit": "%"}]}
{"smiles": "COc1cc(OC)c2c(c1)C(C)(C)C(c1ccc(OC)c(OC)c1)CC2=O", "note": "(centres unmarked) [3-(3,4-dimethoxyphenyl)-6,8-dimethoxy-4,4-dimethyl-3 4-dihydro-1(2H)-naphthalenone]", "values": [{"measurement": "inhibition (increased ear weight)", "setting": "[3]", "result": 50, "unit": "%"}, {"measurement": "inhibition at 5 µM", "setting": "5-lipoxygenase; read-out: % Inhibition 5-HETE", "result": 29, "unit": "%"}, {"measurement": "inhibition at 5 µM", "setting": "5-lipoxygenase; read-out: % Inhibition LTC4", "result": 36, "unit": "%"}, {"measurement": "inhibition at 50 µM", "setting": "5-lipoxygenase; read-out: % Inhibition 5-HETE", "result": 100, "unit": "%"}, {"measurement": "inhibition at 50 µM", "setting": "5-lipoxygenase; read-out: % Inhibition LTC4", "result": 99, "unit": "%"}, {"measurement": "inhibition at 50 µM", "setting": "[1]", "result": 62, "unit": "%"}, {"measurement": "inhibition in vivo at 10 mg/kg", "setting": "[2]", "result": 0, "unit": "%"}]}
{"smiles": "CC1(C)C(c2ccc(O)c(O)c2)=CC(=O)c2c(O)cc(O)cc21", "note": "[trisodium salt of 3(3 4-dihydroxy-phenyl)-6,8-dihydroxy-4,4-dimethyl-1(4H)-naphthalenone]", "values": [{"measurement": "inhibition (increased ear weight)", "setting": "[3]", "result": 90, "unit": "%"}]}
